From ChEMBL document CHEMBL1201862, “PubChem BioAssay data set” (2004)
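Following 48 hours of exposure in 96-well plates, responses at five concentrations were used to interpolate endpoints linearly. At the GI50, growth is halved.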 The source made the active and inactive calls. Cut-off read from the data, not from the text of the source: active = GI50 up to about 1.1 µM and inactive = higher.

Key:
Test in all cases: NCI-60 cell line screen, 48 h
HCT-15 = system: HCT-15
HOP-62 = system: HOP-62
NCI-H522 = system: NCI-H522
Hs-578T = system: Hs-578T
HCT-116 = system: HCT-116
K562 = system: K562
OVCAR-5 = system: OVCAR-5
SK-OV-3 = system: SK-OV-3
EKVX = system: EKVX
CCRF-CEM = system: CCRF-CEM
IGROV-1 = system: IGROV-1
SK-MEL-28 = system: SK-MEL-28
RXF 393 = system: RXF 393
RPMI-8226 = system: RPMI-8226
COLO 205 = system: COLO 205
Malme-3M = system: Malme-3M
SNB-75 = system: SNB-75
SNB-19 = system: SNB-19

SMILES | GI50 (HCT-15) [µM] | GI50 (HOP-62) | GI50 (NCI-H522) | GI50 (Hs-578T) | GI50 (HCT-116) | GI50 (K562) | GI50 (OVCAR-5) | GI50 (SK-OV-3) | GI50 (EKVX) | GI50 (CCRF-CEM) | GI50 (IGROV-1) | GI50 (SK-MEL-28) | GI50 (RXF 393) | GI50 (RPMI-8226) | GI50 (COLO 205) | GI50 (Malme-3M) | GI50 (SNB-75) | GI50 (SNB-19)
O=C1/C(=C/c2ccccc2O)N=C(c2ccccc2)N1C1Nc2cc3c(cc2S1)NC(N1C(=O)/C(=C/c2ccccc2O)N=C1c1ccccc1)S3 (centres undefined) | 13.5 | 31.2 µM (inactive) | 35.2 µM (inactive) | 30.5 µM (inactive) | 27.3 µM (inactive) | 29.9 µM (inactive) | > 100 µM (inactive) | 35.8 µM (inactive) | 46.7 µM (inactive) | 39.7 µM (inactive) | 14.2 µM (inactive) | 65.3 µM (inactive) | 23.7 µM (inactive) | 26.1 µM (inactive) |  |  |  | 
CC1CN=C(Nc2ccc(S(N)(=O)=O)cc2)S1 (centres undefined) | > 100 | > 100 µM (inactive) |  | > 100 µM (inactive) | > 100 µM (inactive) | > 100 µM (inactive) | > 100 µM (inactive) | > 100 µM (inactive) | > 100 µM (inactive) | > 100 µM (inactive) | > 100 µM (inactive) | > 100 µM (inactive) |  | > 100 µM (inactive) | > 100 µM (inactive) | > 100 µM (inactive) | > 100 µM (inactive) | > 100 µM (inactive)
Cc1nc2c3c(ncn2n1)Oc1c(c(-c2ccccc2)nn1-c1ccccc1)C3c1ccc(Cl)cc1 (centres undefined) | > 100 | 75.7 µM (inactive) |  | 23.2 µM (inactive) | > 100 µM (inactive) | > 100 µM (inactive) | > 100 µM (inactive) | 43.3 µM (inactive) | > 100 µM (inactive) | > 10 µM (inactive) | > 100 µM (inactive) | > 100 µM (inactive) | 72.3 µM (inactive) | > 100 µM (inactive) | > 100 µM (inactive) | 46.1 µM (inactive) | 39.6 µM (inactive) | 34.8 µM (inactive)
COc1ccc(Nc2c[nH]c(=O)[nH]c2=O)cc1 | > 100 | > 100 µM (inactive) | > 100 µM (inactive) |  | > 100 µM (inactive) | > 100 µM (inactive) |  | > 100 µM (inactive) | > 100 µM (inactive) | > 100 µM (inactive) | > 100 µM (inactive) | > 100 µM (inactive) | > 100 µM (inactive) | > 100 µM (inactive) | > 100 µM (inactive) | > 100 µM (inactive) | > 100 µM (inactive) | > 100 µM (inactive)
Cc1ccc(N(C(=O)Nc2ccc(F)c(Cl)c2)C2=NCC(C)S2)cc1 (centres undefined) | 52.7 | > 100 µM (inactive) |  | > 100 µM (inactive) | 38.6 µM (inactive) | 43.9 µM (inactive) | > 100 µM (inactive) | > 100 µM (inactive) | 49.9 µM (inactive) | 42.2 µM (inactive) | > 100 µM (inactive) | 19.9 µM (inactive) |  | > 10 µM (inactive) | 72.4 µM (inactive) | 77.3 µM (inactive) | 17.9 µM (inactive) | > 100 µM (inactive)
O=[N+]([O-])c1ccc2[nH]c(=S)[nH]c(=S)c2c1 | > 100 | > 100 µM (inactive) | > 100 µM (inactive) | > 100 µM (inactive) | > 100 µM (inactive) | > 100 µM (inactive) | > 100 µM (inactive) | > 100 µM (inactive) | > 100 µM (inactive) | > 100 µM (inactive) | > 100 µM (inactive) | > 100 µM (inactive) | > 100 µM (inactive) | > 100 µM (inactive) | > 100 µM (inactive) | > 100 µM (inactive) | 20.7 µM (inactive) | > 100 µM (inactive)
COC1OC(Cn2cc([N+](=O)[O-])nc2C)C(O)C(O)C1O (centres undefined) | > 100 | > 100 µM (inactive) | > 100 µM (inactive) | > 100 µM (inactive) | > 100 µM (inactive) | > 100 µM (inactive) | > 100 µM (inactive) | > 100 µM (inactive) | > 100 µM (inactive) | > 100 µM (inactive) | > 100 µM (inactive) | > 100 µM (inactive) | > 100 µM (inactive) | > 100 µM (inactive) | > 100 µM (inactive) | 5.93 µM (inactive) |  | > 100 µM (inactive)
Cc1nc(N)sc1/N=N/c1cc(Cl)c([N+](=O)[O-])cc1Cl | 21.4 | 33.7 µM (inactive) | 15.5 µM (inactive) | 21.9 µM (inactive) | 33.6 µM (inactive) | 13.1 µM (inactive) | 31.3 µM (inactive) | 74.6 µM (inactive) | 13 µM (inactive) | 11.8 µM (inactive) | 20.1 µM (inactive) | 10.7 µM (inactive) | 34.4 µM (inactive) | 2.29 µM (inactive) | 31 µM (inactive) | 12 µM (inactive) | < 0.01 µM (active) | 29.1 µM (inactive)
N#C/C(C(=O)Nc1ccccc1)=C(/N)N1CCCC1 | > 100 | > 100 µM (inactive) | > 100 µM (inactive) | > 100 µM (inactive) | > 100 µM (inactive) | > 100 µM (inactive) | > 100 µM (inactive) | > 100 µM (inactive) | 72.3 µM (inactive) | > 100 µM (inactive) | > 100 µM (inactive) | > 100 µM (inactive) | > 100 µM (inactive) | > 100 µM (inactive) | > 100 µM (inactive) | > 100 µM (inactive) |  | > 100 µM (inactive)
O=C1C(c2ccccc2)=C(c2ccccc2)C(c2ccc(Cc3ccc(C4=C(c5ccccc5)C(=O)C(c5ccccc5)=C4c4ccccc4)cc3)cc2)=C1c1ccccc1 | > 100 | > 100 µM (inactive) | > 100 µM (inactive) |  | > 100 µM (inactive) | > 100 µM (inactive) | > 100 µM (inactive) | > 100 µM (inactive) | > 100 µM (inactive) | > 100 µM (inactive) | > 100 µM (inactive) |  | > 100 µM (inactive) | > 100 µM (inactive) | > 100 µM (inactive) | 74.1 µM (inactive) | > 100 µM (inactive) | > 100 µM (inactive)
O=C(CCCN1CC=C(n2c(=O)[nH]c3ccccc32)CC1)c1cccs1 | > 100 | > 100 µM (inactive) | > 100 µM (inactive) |  | > 100 µM (inactive) | 66.2 µM (inactive) | > 100 µM (inactive) | > 100 µM (inactive) | > 100 µM (inactive) | > 100 µM (inactive) | > 100 µM (inactive) | > 100 µM (inactive) | > 100 µM (inactive) | > 100 µM (inactive) | > 100 µM (inactive) | > 100 µM (inactive) | > 100 µM (inactive) | > 100 µM (inactive)
O/N=C1\CCc2nonc2\C1=N/Nc1ccccc1 | > 100 | > 100 µM (inactive) |  | > 100 µM (inactive) | > 100 µM (inactive) | > 100 µM (inactive) | > 100 µM (inactive) | > 100 µM (inactive) | 39.9 µM (inactive) | > 100 µM (inactive) | > 100 µM (inactive) | > 100 µM (inactive) | > 100 µM (inactive) | > 100 µM (inactive) | > 100 µM (inactive) | > 100 µM (inactive) | > 100 µM (inactive) | > 100 µM (inactive)
